Experimental data from ChEMBL document CHEMBL1201862, “PubChem BioAssay data set” (2004).
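Cells were grown in 96-well plates and exposed to each compound for 48 hours at five concentrations; endpoints were interpolated linearly between bracketing concentrations, or set to the highest concentration if not reached. The concentration for 50% growth inhibition is given as GI50.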 Active and inactive are the calls of the source. No stated cut-off is given here; in the data, active = GI50 up to about 1.1 µM and inactive = higher.

Assays:
Experiment in all cases: inhibition of tumour cell growth, NCI panel, 48 h
HCT-15 = test system: HCT-15
OVCAR-5 = test system: OVCAR-5
RPMI-8226 = test system: RPMI-8226
HCT-116 = test system: HCT-116
TK-10 = test system: TK-10
M19-MEL = test system: M19-MEL
SF-539 = test system: SF-539
DLD-1 = test system: DLD-1
HCC 2998 = test system: HCC 2998
SK-MEL-5 = test system: SK-MEL-5
EKVX = test system: EKVX
NCI-H226 = test system: NCI-H226
786-0 = test system: 786-0
SN12C = test system: SN12C
RXF 393 = test system: RXF 393
DU-145 = test system: DU-145
T47D = test system: T47D
MCF7 = test system: MCF7
PC-3 = test system: PC-3
DMS-114 = test system: DMS-114

| SMILES | GI50 (HCT-15) [µM] | GI50 (OVCAR-5) | GI50 (RPMI-8226) | GI50 (HCT-116) | GI50 (TK-10) | GI50 (M19-MEL) | GI50 (SF-539) | GI50 (DLD-1) | GI50 (HCC 2998) | GI50 (SK-MEL-5) | GI50 (EKVX) | GI50 (NCI-H226) | GI50 (786-0) | GI50 (SN12C) | GI50 (RXF 393) | GI50 (DU-145) | GI50 (T47D) | GI50 (MCF7) | GI50 (PC-3) | GI50 (DMS-114) |
| --- | --- | --- | --- | --- | --- | --- | --- | --- | --- | --- | --- | --- | --- | --- | --- | --- | --- | --- | --- | --- |
| CCN1CCC(O)(c2ccc(C)cc2)C(C(=O)c2ccc(C)cc2)C1 (configuration not stated) | 19.6 | 20.2 µM (inactive) | 12.9 µM (inactive) | 16.7 µM (inactive) | > 44.5 µM (inactive) | > 47.3 µM (inactive) | > 43.5 µM (inactive) | 18.1 µM (inactive) | 52.4 µM (inactive) | > 42.3 µM (inactive) | 17.3 µM (inactive) | > 100 µM (inactive) | 13.5 µM (inactive) | 14.9 µM (inactive) |  |  |  |  |  |  |
| COc1ccc(NCc2cc(OC)c(OC)c(OC)c2)cc1 | 0.217 |  | 0.459 µM (active) | 0.367 µM (active) |  |  | 0.34 µM (active) | 0.345 µM (active) | 0.277 µM (active) | 0.207 µM (active) | 4.97 µM (inactive) |  | 0.647 µM (active) | 0.53 µM (active) | 0.342 µM (active) |  |  |  |  |  |
| COc1cc(C2c3cc4c(cc3[C@H](OCCN(C)C)[C@@H]3COC(=O)C23)OCO4)cc(OC)c1O (some centres not stated) | 0.605 | 0.738 µM (active) | 0.938 µM (active) | 0.753 µM (active) | 2.51 µM (inactive) | 0.373 µM (active) | 0.0671 µM (active) | 0.805 µM (active) | 0.774 µM (active) | 0.307 µM (active) | 0.485 µM (active) | 0.0441 µM (active) | 0.0614 µM (active) | 0.0624 µM (active) | 0.299 µM (active) | 134 nM (active) | 369 nM (active) | 48.4 nM (active) | 805 nM (active) |  |
| CC1(CO)OC(n2cc(C(=O)NC(=O)OCc3ccccc3)c(=O)[nH]c2=O)CC1O (configuration not stated) | > 100 |  | > 100 µM (inactive) | > 100 µM (inactive) | > 100 µM (inactive) | > 100 µM (inactive) | > 100 µM (inactive) | > 100 µM (inactive) |  | > 100 µM (inactive) |  | > 100 µM (inactive) | > 100 µM (inactive) | > 100 µM (inactive) |  |  |  |  |  | > 100 µM (inactive) |
| CC(C)(C)C1CC[C@H]2c3c([nH]c4ccccc34)[C@H]3C(=O)N(c4ccc(F)cc4)C(=O)[C@H]3[C@H]2C1 (some centres not stated) | 20.7 | 28.9 µM (inactive) |  | 11.6 µM (inactive) | 16.3 µM (inactive) | 17.1 µM (inactive) | 18.9 µM (inactive) | 16.8 µM (inactive) | 13.6 µM (inactive) | 18.7 µM (inactive) | 16.3 µM (inactive) | 19.1 µM (inactive) | 11.3 µM (inactive) | 11.1 µM (inactive) | 27.4 µM (inactive) |  |  |  |  | 17.1 µM (inactive) |
| O=c1oc2ccccc2c(O)c1C(C/C(CCN1CCCC1)=N\Nc1ccccc1)c1ccccc1 (configuration not stated) | 52.2 | > 100 µM (inactive) | 27.1 µM (inactive) | 82.6 µM (inactive) | > 100 µM (inactive) | 61.2 µM (inactive) | 88.9 µM (inactive) | 99.5 µM (inactive) | 23.6 µM (inactive) | 46.3 µM (inactive) | > 100 µM (inactive) | 71.9 µM (inactive) | > 100 µM (inactive) | 74.6 µM (inactive) | 32.7 µM (inactive) |  |  |  |  |  |
| Nc1nc(CCl)nc(Nc2ccccc2)n1 |  | 19.9 µM (inactive) | 4.1 µM (inactive) | 19.5 µM (inactive) | 24 µM (inactive) | 29.4 µM (inactive) | 25 µM (inactive) | 36.9 µM (inactive) | 17.4 µM (inactive) | 17.5 µM (inactive) |  | 26.2 µM (inactive) | 2 µM (inactive) |  |  |  |  |  |  | 18.4 µM (inactive) |
| CN(C)c1ccc2c(c1)C(=O)N(OS(=O)(=O)c1ccc([N+](=O)[O-])cc1)C2=O | 33.2 | 25.4 µM (inactive) |  | > 10 µM (inactive) | 59 µM (inactive) | 19 µM (inactive) | 17.6 µM (inactive) | 24 µM (inactive) | 24.6 µM (inactive) | 41.1 µM (inactive) | 42.7 µM (inactive) | 72.8 µM (inactive) | 19.3 µM (inactive) | 22.5 µM (inactive) | 13.9 µM (inactive) |  |  |  |  | > 10 µM (inactive) |
| O=[N+]([O-])c1ccc(C2=NN(c3ccccc3)C[N+](c3ccc(Br)cc3)=N2)cc1 | > 100 | > 100 µM (inactive) | > 100 µM (inactive) | 89.5 µM (inactive) | > 100 µM (inactive) | > 100 µM (inactive) | 46 µM (inactive) | > 100 µM (inactive) | 41.6 µM (inactive) | > 100 µM (inactive) | > 100 µM (inactive) | > 100 µM (inactive) | > 100 µM (inactive) | > 100 µM (inactive) | 31.1 µM (inactive) |  |  |  |  |  |
| O=[N+]([O-])c1ccccc1C1SCc2nc3ccccc3n21 (configuration not stated) |  |  |  |  | 79.1 µM (inactive) |  | > 100 µM (inactive) | 82 µM (inactive) |  | 18.3 µM (inactive) | 75 µM (inactive) |  | > 100 µM (inactive) | 83.9 µM (inactive) | > 100 µM (inactive) |  |  |  |  | 66.2 µM (inactive) |
